Two compounds from patent US4098782A, “(His^5)-somatostatin and analogues thereof” (American Home Products Corporation, priority 1977, dated 1978) can be followed below.

Common to all, as to assay type: in vivo
Test [1] deals with insulin. The experiment in a line: Arginine-stimulated insulin secretion in Nembutal-anesthetized rats. Conditions: for Insulin: albino male rats, blood 15 min after dose (5 min after arginine), control 372 ± 47. On the procedure: (§1) Albino male rats were administered Nembutal intraperitoneally at a dose of 50 milligrams per kilogram. Fifteen minutes later a subcutaneous injection of the test compound or physiological saline was administered. Ten minutes later 0.5 milliliters of arginine (300 milligrams per milliliter, pH 7.2) is injected into the heart. Five minutes after receipt of the arginine the rats are decapitated and blood is collected into trasylol-EDTA. An appropriate aliquot was assayed for growth hormone, insulin and glucagon.

For test [2], the system named is glucagon. Briefly: Arginine-stimulated glucagon secretion in Nembutal-anesthetized rats. To be noted: for Glucagon: albino male rats, blood 15 min after dose (5 min after arginine), control 51 ± 4, * = p < 0.01. On the procedure:
as §1

Test [3] deals with growth hormone. The experiment in a line: Arginine-stimulated growth hormone secretion in Nembutal-anesthetized rats. To be noted: for GH: albino male rats, blood 15 min after dose (5 min after arginine), control 288 ± 30, * = p < 0.01. On the procedure: as §1

Bridge positions count the residues as written; N and C are the ends. Peptide text beside a SMILES is read from it.

In test [1] (1300 ug/kg subcutaneous), `C[C@H](N)C(=O)NCC(=O)N[C@H]1CSSC[C@@H](C(=O)O)NC(=O)[C@H](CO)NC(=O)[C@H]([C@@H](C)O)NC(=O)[C@H](Cc2ccccc2)NC(=O)[C@H]([C@@H](C)O)NC(=O)[C@H](CCCCN)NC(=O)[C@H](Cc2c[nH]c3ccccc23)NC(=O)[C@H](Cc2ccccc2)NC(=O)[C@H](Cc2ccccc2)NC(=O)[C@H](Cc2c[nH]cn2)NC(=O)[C@H](CCCCN)NC1=O` [(His^5)SRIF, L-Alanyl-glycyl-L-cysteinyl-lysyl-L-histidyl-L-phenylalanyl-L-phenylalanyl-L-tryptophyl-L-lysyl-L-threonyl-L-phenylalanyl-L-threonyl-L-seryl-L-cysteine(3-14 cyclic)disulfide] (H-AGCKHFFWKTFTSC-OH; disulfide 3-14) showed an Insulin of 390 ± 94 μU/ml. Further, the “effect on insulin levels (in words)” value in test [1] (summary of rat assay) is “without materially affecting insulin levels”. The compound also displayed a Glucagon in test [2] (1300 ug/kg subcutaneous) of 31 ± 6 pg/mL. For the same compound, the “reducing secretion of glucagon (in words)” value in test [2] (summary of rat assay) is “effective agent for reducing secretion of growth hormone and glucagon”. The compound also gave a GH in test [3] (1300 ug/kg subcutaneous) of 83 ± 15 ng/mL. The “reducing secretion of growth hormone (in words)” value in test [3] (summary of rat assay) is on record as “effective agent for reducing secretion of growth hormone”.
Consider `C[C@H](N)C(=O)NCC(=O)N[C@H]1CSSC[C@@H](C(=O)O)NC(=O)[C@H](CO)NC(=O)[C@H]([C@@H](C)O)NC(=O)[C@H](Cc2ccccc2)NC(=O)[C@H]([C@@H](C)O)NC(=O)[C@H](CCCCN)NC(=O)[C@H](Cc2c[nH]c3ccccc23)NC(=O)[C@H](Cc2ccccc2)NC(=O)[C@H](Cc2ccccc2)NC(=O)[C@H](CC(N)=O)NC(=O)[C@H](CCCCN)NC1=O` [SRIF, reference compound], for which the Insulin in test [1] (200 ug/kg subcutaneous, + = p < 0.05) was determined as 232 ± 23 μU/ml. In test [2] (200 ug/kg subcutaneous), the Glucagon amounted to 26 ± 6 pg/mL. In test [3] (200 ug/kg subcutaneous), this compound displayed a GH of 66 ± 11 ng/mL.
